# Tested on: Triple negative breast cancer cell line CAL51
# Test: Cell Titer Glo proliferation assay, CAL51
# Assay type: cell-based
# Conditions: Homo sapiens, CAL-51; CAL51 cell proliferation (Table 1); read-out: Act. Level
# Method: Cell Titer Glo Proliferation Assay.
# Triple negative breast cancer cell line CAL51 was purchased from DSMZ. […] Allcell lines were maintained in growth media consisting of 90% high glucose Dulbecco's Modified Eagle Medium or RPMI1640 (Invitrogen), 10% fetal bovine serum (Hyclone), and 2 mM L-glutamine (Invitrogen). […] After overnight culture, compound stock (30 mM) was diluted serially in DMSO, further diluted in growth media, and was added to each well as a 10× concentrated solution in a volume of 11 μL, mixed, and allowed to incubate with cells. The compound vehicle (DMSO) was maintained at a final concentration of 0.2% in all wells. After 72 h, 100 μL of Cell Titer Glo solution (Promega) was added to each well of the 96-well plate. The plate was placed on a shaker for 2 minutes. After 10 minutes incubation, the luminescence signal was detected with Envision microplate reader (Perkin Elmer).
row,SMILES,IC50
1,"COc1cc(C(=O)N(C)C)ccc1Nc1nc(OC)c2c(-c3ccc4c(C)noc4c3)c[nH]c2n1 [Example 408, 3-methoxy-4-(4-methoxy-5-(3-methylbenzo[d]isoxazol-6-yl)-7H-pyrrolo[2,3-d]pyrimidin-2-ylamino)-N,N-dimethylbenzamide]",100 to 400 nM
2,"COc1nc(Nc2ccnn2C)nc2[nH]cc(-c3ccncc3)c12 [Example 401, 4-methoxy-N-(1-methyl-1H-pyrazol-5-yl)-5-(pyridin-4-yl)-7H-pyrrolo[2,3-d]pyrimidin-2-amine]",1000 to 10000 nM
3,"COc1nc(Nc2ccc3[nH]ncc3c2C)nc2[nH]cc(-c3ccncc3)c12 [Example 414, 4-methoxy-N-(4-methyl-1H-indazol-5-yl)-5-(pyridin-4-yl)-7H-pyrrolo[2,3-d]pyrimidin-2-amine]",1000 to 10000 nM
4,"COc1nc(Nc2ccc(C(=O)N(C)C)cc2C)nc2[nH]cc(-c3ccc4c(C)noc4c3)c12 [Example 400, 4-(4-methoxy-5-(3-methylbenzo[d]isoxazol-6-yl)-7H-pyrrolo[2,3-d]pyrimidin-2-ylamino)-N,N,3-trimethylbenzamide]",< 100 nM
5,"CNC(=O)c1ccc(Nc2nc(OC(C)C)c3c(-c4ccc5nc(C)oc5c4)c[nH]c3n2)c(Cl)c1 [Example 426, 3-chloro-4-(4-isopropoxy-5-(2-methylbenzo[d]oxazol-6-yl)-7H-pyrrolo[2,3-d]pyrimidin-2-ylamino)-N-methylbenzamide]",< 100 nM
6,"COc1cc(C(=O)NC2COC2)ccc1Nc1nc(OC)c2c(-c3ccnnc3)c[nH]c2n1 [Example 405, 3-methoxy-4-(4-methoxy-5-(pyridazin-4-yl)-7H-pyrrolo[2,3-d]pyrimidin-2-ylamino)-N-(oxetan-3-yl)benzamide]",400 to 1000 nM
7,"COc1cc(C(=O)NC2COC2)ccc1Nc1nc(OC)c2c(-c3cn(C)nc3Cl)c[nH]c2n1 [Example 417, 4-(5-(3-chloro-1-methyl-1H-pyrazol-4-yl)-4-methoxy-7H-pyrrolo[2,3-d]pyrimidin-2-ylamino)-3-methoxy-N-(oxetan-3-yl)benzamide]",1000 to 10000 nM

# Same assay, conditions: Homo sapiens, CAL-51; CAL51 cell proliferation, Cell Titer Glo; read-out: Act. Level
row,SMILES,IC50
1,"CNC(=O)c1ccc(-c2c[nH]c3nc(Nc4cn(C)nc4C)nc(OC4CCC4)c23)cc1 [Example 340, 4-(4-cyclobutoxy-2-(1,3-dimethyl-1H-pyrazol-4-ylamino)-7H-pyrrolo[2,3-d]pyrimidin-5-yl)-N-methylbenzamide]",< 100 nM
2,"CNC(=O)c1ccc(Nc2nc(OC3CCCC3)c3c(-c4ccc(OC)cc4OC)c[nH]c3n2)c(OC)c1 [Example 320, 4-(4-(cyclopentyloxy)-5-(2,4-dimethoxyphenyl)-7H-pyrrolo[2,3-d]pyrimidin-2-ylamino)-3-methoxy-N-methylbenzamide]",1000 to 10000 nM
3,"COc1nc(Nc2ccc(C(=O)N(C)C)cc2C)nc2[nH]cc(-c3cnn(C)c3)c12 [Example 398, 4-(4-methoxy-5-(1-methyl-1H-pyrazol-4-yl)-7H-pyrrolo[2,3-d]pyrimidin-2-ylamino)-N,N,3-trimethylbenzamide]",400 to 1000 nM
4,"COc1cc(C(=O)N2CC2C)ccc1Nc1nc(OC2CCCC2)c2c(-c3ccc4nc(C)oc4c3)c[nH]c2n1 [Example 335, (R)-(4-(4-(cyclopentyloxy)-5-(2-methylbenzo[d]oxazol-6-yl)-7H-pyrrolo[2,3-d]pyrimidin-2-ylamino)-3-methoxyphenyl)(2-methylaziridin-1-yl)methanone]",400 to 1000 nM
5,"CNC(=O)c1ccc(-c2c[nH]c3nc(Nc4ccc(C(=O)NC5COC5)cc4Cl)nc(OC4CCC4)c23)cc1 [Example 333, 3-chloro-4-(4-cyclobutoxy-5-(4-(methylcarbamoyl)phenyl)-7H-pyrrolo[2,3-d]pyrimidin-2-ylamino)-N-(oxetan-3-yl)benzamide]",< 100 nM
6,"COc1cc(C(=O)NC2COC2)ccc1Nc1nc(OC)c2c(-c3ccnc(F)c3)c[nH]c2n1 [Example 381, 4-(5-(2-fluoropyridin-4-yl)-4-methoxy-7H-pyrrolo[2,3-d]pyrimidin-2-ylamino)-3-methoxy-N-(oxetan-3-yl)benzamide]",100 to 400 nM
7,"COc1nc(Nc2ccc(C(=O)NC3COC3)cc2C)nc2[nH]cc(-c3ccncc3)c12 [Example 396, 4-(4-methoxy-5-(pyridin-4-yl)-7H-pyrrolo[2,3-d]pyrimidin-2-ylamino)-3-methyl-N-(oxetan-3 yl)benzamide]",100 to 400 nM

# More lines, now with the values ahead:
row,IC50,SMILES
1,< 100 nM,"COCCn1ncc(Nc2nc(OC3CCCC3)c3c(-c4ccc5nc(C)oc5c4)c[nH]c3n2)c1Cl [Example 378, N-(5-chloro-1-(2-methoxyethyl)-1H-pyrazol-4-yl)-4-(cyclopentyloxy)-5-(2-methylbenzo[d]oxazol-6-yl)-7H-pyrrolo[2,3-d]pyrimidin-2-amine]"
2,100 to 400 nM,"CNC(=O)c1ccc(Nc2nc(OC)c3c(-c4ccc5c(C)noc5c4)c[nH]c3n2)c(OC)c1 [Example 388, 3-methoxy-4-(4-methoxy-5-(3-methylbenzo[d]isoxazol-6-yl)-7H-pyrrolo[2,3-d]pyrimidin-2-ylamino)-N-methylbenzamide]"
3,100 to 400 nM,"CNC(=O)c1ccc(-c2c[nH]c3nc(Nc4ccc(C(=O)NC5CN(C)C5)cc4OC)nc(OC4CCC(C)(O)CC4)c23)cc1 (stereo not drawn) [Example 349, 4-(4-((1s,4s)-4-hydroxy-4-methylcyclohexyloxy)-5-(4-(methylcarbamoyl)phenyl)-7H-pyrrolo[2,3-d]pyrimidin-2-ylamino)-3-methoxy-N-(1-methylazetidin-3-yl)benzamide]"
4,100 to 400 nM,"COc1cc(C(=O)NC2COC2)ccc1Nc1nc(OC)c2c(-c3ccncc3)c[nH]c2n1 [Example 347, 3-methoxy-4-(4-methoxy-5-(pyridin-4-yl)-7H-pyrrolo[2,3-d]pyrimidin-2-ylamino)-N-(oxetan-3-yl)benzamide]"
5,< 100 nM,"COc1cc(C(=O)NC2CN(C)C2)ccc1Nc1nc(O[C@H]2CCOC2)c2c(-c3ccc4nc(C)oc4c3)c[nH]c2n1 [Example 374, (S)-3-methoxy-N-(1-methylazetidin-3-yl)-4-(5-(2-methylbenzo[d]oxazol-6-yl)-4-(tetrahydrofuran-3-yloxy)-7H-pyrrolo[2,3-d]pyrimidin-2-ylamino)benzamide]"
6,100 to 400 nM,"CNC(=O)c1ccc(-c2c[nH]c3nc(Nc4ccc(C(=O)NC5COC5)cc4OC)nc(OC4CC4)c23)cc1 [Example 344, 4-(4-cyclopropoxy-5-(4-(methylcarbamoyl)phenyl)-7H-pyrrolo[2,3-d]pyrimidin-2-ylamino)-3-methoxy-N-(oxetan-3-yl)benzamide]"
7,100 to 400 nM,"COc1cc(C(=O)NC2COC2)ccc1Nc1nc(OC)c2c(-c3cnn(C)c3)c[nH]c2n1 [Example 382, 3-methoxy-4-(4-methoxy-5-(1-methyl-1H-pyrazol-4-yl)-7H-pyrrolo[2,3-d]pyrimidin-2-ylamino)-N-(oxetan-3-yl)benzamide]"
8,< 100 nM,"COc1nc(Nc2ccc(C(=O)N(C)C)cc2C)nc2[nH]cc(-c3ccc(-c4ncc[nH]4)cc3)c12 [Example 397, 4-(5-(4-(1H-imidazol-2-yl)phenyl)-4-methoxy-7H-pyrrolo[2,3-d]pyrimidin-2-ylamino)-N,N,3-trimethylbenzamide]"
9,100 to 400 nM,"CCn1ncc(Nc2nc(OC3CCCC3)c3c(-c4ccc5nc(C)oc5c4)c[nH]c3n2)c1Cl [Example 385, N-(5-chloro-1-ethyl-1H-pyrazol-4-yl)-4-(cyclopentyloxy)-5-(2-methylbenzo[d]oxazol-6-yl)-7H-pyrrolo[2,3-d]pyrimidin-2-amine]"
10,100 to 400 nM,"Cc1nc2ccc(-c3c[nH]c4nc(Nc5cnn(C(C)C)c5Cl)nc(OC5CCCC5)c34)cc2o1 [Example 351, N-(5-chloro-1-isopropyl-1H-pyrazol-4-yl)-4-(cyclopentyloxy)-5-(2-methylbenzo[d]oxazol-6-yl)-7H-pyrrolo[2,3-d]pyrimidin-2-amine]"
11,< 100 nM,"CNC(=O)c1ccc(Nc2nc(OCCOC)c3c(-c4cnn(C)c4)c[nH]c3n2)c(OC)c1 [Example 326, 3-methoxy-4-(4-(2-methoxyethoxy)-5-(1-methyl-1H-pyrazol-4-yl)-7H-pyrrolo[2,3-d]pyrimidin-2-ylamino)-N-methylbenzamide]"
12,100 to 400 nM,"COc1ccc(-c2c[nH]c3nc(Nc4ccc(C(=O)N(C)C)cc4C)nc(OC)c23)cc1 [Example 391, 4-(4-methoxy-5-(4-methoxyphenyl)-7H-pyrrolo[2,3-d]pyrimidin-2-ylamino)-N,N,3-trimethylbenzamide]"
13,100 to 400 nM,"COc1cc(C(=O)NCCO)ccc1Nc1nc(OC2CCOCC2)c2c(-c3cnn(C)c3)c[nH]c2n1 [Example 327, N-(2-hydroxyethyl)-3-methoxy-4-(5-(1-methyl-1H-pyrazol-4-yl)-4-(tetrahydro-2H-pyran-4-yloxy)-7H-pyrrolo[2,3-d]pyrimidin-2-ylamino)benzamide]"
14,< 100 nM,"Cc1nc2ccc(-c3c[nH]c4nc(Nc5cnn(CC(C)(C)O)c5Cl)nc(OC5CCCC5)c34)cc2o1 [Example 371, 1-(5-chloro-4-(4-(cyclopentyloxy)-5-(2-methylbenzo[d]oxazol-6-yl)-7H-pyrrolo[2,3-d]pyrimidin-2-ylamino)-1H-pyrazol-1-yl)-2-methylpropan-2-ol]"
15,< 100 nM,"CNC(=O)c1ccc(-c2c[nH]c3nc(Nc4ccc(C(=O)N5CC5)cc4OC)nc(O[C@H]4CC[C@@](C)(O)CC4)c23)cc1 [Example 336, 4-(2-(4-(aziridine-1-carbonyl)-2-methoxyphenylamino)-4-((1s,4s)-4-hydroxy-4-methylcyclohexyloxy)-7H-pyrrolo[2,3-d]pyrimidin-5-yl)-N-methylbenzamide]"
16,100 to 400 nM,"COc1cc(C(=O)NC2COC2)ccc1Nc1nc(OC2CC2)c2c(-c3ccc4nc(C)oc4c3)c[nH]c2n1 [Example 369, 4-(4-cyclopropoxy-5-(2-methylbenzo[d]oxazol-6-yl)-7H-pyrrolo[2,3-d]pyrimidin-2-ylamino)-3-methoxy-N-(oxetan-3-yl)benzamide]"

# Reference: patent publication US9795607B2, “Substituted pyrrolopyrimidine compounds, compositions thereof, and methods of treatment therewith” (Signal Pharmaceutical, LLC, priority 2013, dated 2017)
